From patent US5602140A, “Purine derivatives and suppressants for inflammatory diseases” (Japan Energy Corporation, priority 1994, dated 1997)
Counter-ions that a name gives are not always drawn.

How the values were obtained:
[1] = system: platelet aggregation induced by PAF; settings: Life Science, 32, 1975-1982 (1983); cited from earlier work
[2] = system: platelet aggregation induced by PAF; test: Anti-PAF activity: inhibition of platelet aggregation induced by PAF in platelet rich plasma; type: cell-based, rabbit; settings: Oryctolagus cuniculus, PAF 10 nM, test compound concentration 30 μM, read-out: Inhibitory rate
Procedure: Anti-PAF activity of purine derivatives of the present invention was evaluated in the inhibition of platelet aggregation induced by PAF (platelet activation factor).
In the present evaluation, blood was drawn from rabbit and 9 volumes of the blood was added with 1 volume of 3.8% sodium citrate solution, centrifuged at 2,000 rpm for 3 min. to give platelet rich plasma (PRP). In a platelet aggregation determination apparatus, 200 μl of the PRP solution and 25 μl of a solution prepared from a predetermined amount of the test compound were mixed and incubated for 2 min. The incubated mixture was added with 25 μl of a solution containing a predetermined amount of PAF to cause platelet aggregation induced by PAF in the test solution. A concentration of PAF was 10 nM in the test solution. The inhibitory rate against platelet aggregation induced by PAF was calculated from the changes of transmission accompanied by the platelet aggregation.
Various concentrations of the test compounds in the test solution were selected to investigate the relationship between the concentration and the inhibitory rate for the evaluation of inhibitory rate of platelet aggregation induced by PAF. […] The inhibitory rate for the positive control compound, CV-3988 (rac-3-(N-n-octadecylcarbamoyl)-2-methoxypropyl-2-thiazolium ethyl phosphate) is also shown in Table 4.

[3] = Scavenging of active oxygen / inhibitory effect against lipid peroxidation (oxidation of linolenic acid to conjugated diene by hydroxy radical, Fenton reaction); type: biochemical; settings: linolenic acid 1.0 mM, absorbance at 234 nm
Procedure: The inhibitory effect against oxidation of linolenic acid to conjugated diene due to hydroxy radical (. OH) formed by Fenton reaction was determined according to the method of Kharasch et al. (see J. Biol. Chem., 2.60, 10,645 (1985)). A predetermined concentration of FeCl2 solution was added to a mixture of water and DMSO containing predetermined amount of linolenic acid, NaCl, H2 O2, Lubrol and the rest compound to start the reaction. […] Then, the changes of absorbance at 234 nm due to the formation of conjugated diene in the reaction solutions were determined periodically. The inhibitory rate (%) was estimated from the differences between the test solutions and corresponding solutions without the test compound. When the difference of said reaction rate was 0 (zero), then the inhibitory rate was made 0%, and when the reaction rate was 0 (zero), then the inhibitory rate was made 100%.
The inhibitory rate was estimated for various concentrations of said test compounds and the 50%-inhibitory concentration (IC50) was regressively calculated. The preventive effect against lipid peroxidation was evaluated using IC50.

[4] = target: TXA2 synthesis (crude TXA2 synthetase); test: Inhibition of TXA2 synthesis (crude TXA2 synthetase, labeled arachidonic acid, RIA); type: biochemical, human; settings: for IC50: TXA2 formation, 37° C., 10 min
Procedure: Inhibitory effect against TXA2 synthesis was evaluated by the method shown below determining the formation of TXA2 as an arachidonic acid metabolite in the presence of purine derivatives of the present invention.
TXA2 (thromboxane A2) is reported to be synthesized by TXA2 synthetase in arachidonic acid cascade via a cyclic peroxide (PGH2) formed by cyclooxygenase system. Crude TXA2 synthetase was prepared by the following method in the present invention. Blood drawn from healthy volunteer was centrifuged at 200 G for 15 min. and the resulting supernatant was further centrifuged at 2,000 G for 10 min. to give precipitates. The precipitates were homogenized in 0.01M phosphate buffer and centrifuged at 1,000 G for 10 min. to give a supernatant. The resultant supernatant was used as a crude TXA2 synthetase in the following processes. […] The reaction solution was incubated at 37° C. for 10 min. and TXA2 formed in the reaction mixture was determined by RIA method using a commercially available kit (Amersham Co., Ltd., RIA kit). The inhibitory rate was calculated from the difference between the determined amount of formed TXA2 and that carried out in the absence of the test compound. When the difference of formed amount of TXA2 was 0 (zero), then the inhibitory rate was made 0% and when the formation of TXA2 was equal to that of solvent control without TXA2 synthetase, then the inhibitory rate was made 100%.
The inhibitory rate was estimated for various concentrations of said test compounds and the concentration of 50%-inhibition (IC50) was regressively calculated. The inhibitory effect against TXA2 formation was evaluated using IC50.

endotoxin induced death = test: Activity for the endotoxin (LPS) induced death in mice; type: in vivo, male ICR mice; settings: for Survival rate: oral twice (30 min before and 8 hrs after LPS 15 mg/kg i.p.), within 4 days, control 50%
Procedure: (Activity for the endotoxin induced death) Activity of purine derivatives of the present invention for endothelial cell damage by endotoxin was evaluated by the following method.
In the present method of evaluation, endotoxin caused endothelial cell damage was induced by intraperitoneal administration of LPS (E. coli 055:B5) to male ICR mice. The body weight of test mice was determined beforehand and a dose of 15 mg/kg (body weight) of LPS was predetermined. After administration of LPS, the difference between the number of dead mice induced by endotoxin within 4 days and the total number of mice was divided by the total number of mice to give the survival rate. The dose per body weight of test compound was predetermined and orally administered at 30 min. before induction (LPS administration) and at 8 hrs. after the induction, twice in total. The test compounds were suspended in 0.5% CMC--Na aqueous solution.
Various doses of the test compounds per body weight were selected to investigate the relationship between the dose and survival rate for the evaluation of inhibitory effect against endotoxin induced death. […] While, control group was given the same dose of 0.5% CMC--Na aqueous solution only. […] That is, the inhibitory effect of the compound of the present invention against endotoxin induced death was clearly observed.

[5] = system: nephrotoxin-induced nephritis; test: Effect on nephrotoxin-induced nephritis (anti-GBM serum) in rats; type: in vivo, male SD rats; settings: for Serum parameter BUN / Serum parameter Total cholesterol / Serum parameter triglyceride / Urinary protein One day before induction / Urinary protein Day 5 after induction / Urinary protein Day 3 after induction: oral once daily, means ± S.E.; for Serum parameter BUN: control 27.6 ± 0.9; for Serum parameter Total cholesterol: control 75 ± 3; for Serum parameter triglyceride: control 161 ± 25; for Urinary protein One day before induction: control 12.2 ± 1.1; for Urinary protein Day 5 after induction: control 72.1 ± 25.7; for Urinary protein Day 3 after induction: control 74.1 ± 25.6
Procedure: Inhibitory effect of purine derivatives of the present invention against nephrotoxin-induced nephritis was evaluated by the following method.
In the present method of evaluation, nephrotoxin-induced nephritis was induced by administration of anti-GBM (glomerular basement membrane) serum to 9-week old male SD rats. The anti-GBM serum was prepared according to a known method (see Kidney and Dialysis (Jin to Toseki) 31, Special Issue, p. 202-206 (1991), Pub. by Tokyo Igakusha Ltd., Tokyo, Japan). Anti-GBM serum was intravenously administered at an induction dose of 0.15 ml/300 g (body weight). The predetermined dose per body weight of the test compound was suspended in 0.5% CMC--Na aqueous solution and orally administered once daily for consecutive 7 days starting from one day before induction (administration of anti-GBM serum). While, control group was given the same dose of 0.5% CMC--Na aqueous solution only. During the administration period of the test compound, urinary protein was measured every 24 hrs. Seven days after the induction, blood was drawn to prepare serum sample by a conventional method, and BUN, total cholesterol and triglyceride were measured.
Various doses of the test compounds per body weight were selected to investigate the relationship between the dose and urinary protein for the evaluation of inhibitory effect against nephrotoxin-induced nephritis.

[6] = system: TXA2 synthesis (crude TXA2 synthetase); settings: J. Med. Chem., 24, 1139-1149 (1981); cited from earlier work
[7] = dose 30 mg/kg, day 7 after induction
[8] = dose 100 mg/kg, day 7 after induction, *p < 0.05

SMILES	IC50 [3] [µM]	IC50 [4] [nM]	inhibition at 30 µM [2] [%]	other results
CCCCCCCCCCCCCCCCCCNC(=O)OCC(COP(=O)([O-])OCC[n+]1ccsc1)OC (racemic) [CV-3988, rac-3-(N-n-octadecylcarbamoyl)-2-methoxypropyl-2-thiazolium ethyl phosphate, reference compound]			78	anti-PAF activity (literature, in words) [1]: high anti-PAF activity
COc1nc(-c2cc(C(C)(C)C)c(O)c(C(C)(C)C)c2)nc2nc[nH]c12 [Example 1, 2-(3,5-di-tert-butyl-4-hydroxyphenyl)-6-methoxypurine]	3.5	963	46	
CCCOc1nc(-c2cc(C(C)(C)C)c(O)c(C(C)(C)C)c2)nc2nc[nH]c12 [Example 2, 2-(3,5-di-tert-butyl-4-hydroxyphenyl)-6-n-propoxypurine]	3.4	157	57	Survival rate (endotoxin induced death; dose 100 mg/kg): 68%; Survival rate (endotoxin induced death; dose 300 mg/kg): 75%; effect on survival / endotoxin induced death (in words) (endotoxin induced death; oral, 100 and 300 mg/kg): increase in survival rate with the increase of dose was clearly observed; Serum parameter BUN [5, 7]: 26.9 ± 0.8 mg/dL; Serum parameter Total cholesterol [5, 7]: 72 ± 6 mg/dL; Serum parameter triglyceride [5, 7]: 125 ± 20 mg/dL; Urinary protein One day before induction ([5]; dose 30 mg/kg): 10.5 ± 0.8 mg/day; Urinary protein Day 5 after induction ([5]; dose 30 mg/kg): 52.8 ± 16.7 mg/day; Urinary protein Day 3 after induction ([5]; dose 30 mg/kg): 49.0 ± 16.7 mg/day; Serum parameter triglyceride ([5]; dose 100 mg/kg, day 7 after induction, **p < 0.01): 60 ± 4 mg/dL; Serum parameter BUN [5, 8]: 23.6 ± 1.6 mg/dL; Serum parameter Total cholesterol [5, 8]: 66 ± 2 mg/dL; Urinary protein Day 5 after induction ([5]; dose 100 mg/kg, *p < 0.05): 14.3 ± 1.0 mg/day; Urinary protein Day 3 after induction ([5]; dose 100 mg/kg, *p < 0.05): 14.5 ± 1.7 mg/day; Urinary protein One day before induction ([5]; dose 100 mg/kg): 12.2 ± 2.5 mg/day; inhibitory effect against increase of urinary protein (in words) ([5]; oral, 30 and 100 mg/kg): dose dependent inhibitory effect against increase of urinary protein; concentrations of serum BUN, total cholesterol and triglyceride (in words) ([5]; oral, 30 and 100 mg/kg, day 7 after induction): dose dependent decrease; inhibitory effect against formation of TXA2 (in words) [4]: remarkable inhibitory effect against formation of TXA2
CCCCOc1nc(-c2cc(C(C)(C)C)c(O)c(C(C)(C)C)c2)nc2nc[nH]c12 [Example 3, 6-n-butoxy-2-(3,5-di-tert-butyl-4-hydroxyphenyl)purine]	3.5	174	78	inhibitory effect against formation of TXA2 (in words) [4]: remarkable inhibitory effect against formation of TXA2
CC(C)(C)c1cc(-c2nc(OCCc3ccccc3)c3[nH]cnc3n2)cc(C(C)(C)C)c1O [Example 6, 2-(3,5-di-tert-butyl-4-hydroxyphenyl)-6-phenethyloxypurine]	3.5	681	35	
CC(C)(C)c1cc(-c2nc(O)c3[nH]cnc3n2)cc(C(C)(C)C)c1O [Example 7, 2-(3,5-di-tert-butyl-4-hydroxyphenyl)-6-hydroxypurine]	3.4		5	
CC(C)(C)c1cc(-c2nc(OCCCCCCCC(=O)O)c3[nH]cnc3n2)cc(C(C)(C)C)c1O [Example 10, 6-(7-carboxy-n-heptyloxy)-2-(3,5-di-tert-butyl-4-hydroxyphenyl)purine]	3.7		4	
CC(C)(C)c1cc(-c2nc(OCc3ccc(C(=O)O)cc3)c3[nH]cnc3n2)cc(C(C)(C)C)c1O [Example 11, 6-(4-carboxybenzyloxy)-2-(3,5-di-tert-butyl-4-hydroxyphenyl)purine]	3.9		53	

Continued, in another order:

IC50 [3] [µM]	IC50 [4] [nM]	SMILES	inhibition at 30 µM [2] [%]	other results
3.7	942	CCCCCCOc1nc(-c2cc(C(C)(C)C)c(O)c(C(C)(C)C)c2)nc2nc[nH]c12 [Example 4, 2-(3,5-di-tert-butyl-4-hydroxyphenyl)-6-n-hexyloxypurine]	61	
5.4		CCCCCCCCOc1nc(-c2cc(C(C)(C)C)c(O)c(C(C)(C)C)c2)nc2nc[nH]c12 [Example 5, 2-(3,5-di-tert-butyl-4-hydroxyphenyl)-6-n-octyloxypurine]	15	
4		CC(C)(C)c1cc(-c2nc(OCCCC(=O)O)c3[nH]cnc3n2)cc(C(C)(C)C)c1O [Example 8, 6-(3-carboxy-n-propoxy)-2-(3,5-di-tert-butyl-4-hydroxyphenyl)purine]	5	
3.6		CC(C)(C)c1cc(-c2nc(OCCCCCC(=O)O)c3[nH]cnc3n2)cc(C(C)(C)C)c1O [Example 9, 6-(5-carboxy-n-pentyloxy)-2-(3,5-di-tert-butyl-4-hydroxyphenyl)purine]	2	
	17	O=C(O)/C=C/c1ccc(Cn2ccnc2)cc1 [Ozagrel HCl, reference compound]		inhibitory effect against TXA2 synthesis (literature, in words) [6]: very high inhibitory effect against TXA2 synthesis
